Results on 12 molecules are retold here after ChEMBL document CHEMBL1201862, “PubChem BioAssay data set” (2004).

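Growth conditions: 96-well plates. Treatment: test compound, 48 hours, 5 concentrations. Analysis: linear interpolation between bracketing concentrations; unreached endpoints set to highest concentration. GI50 marks 50% less growth.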 The source made the active and inactive calls. No stated cut-off is given here; in the data, active = GI50 up to about 1.1 µM and inactive = higher.

Some test systems named below: SNB-75; MOLT-4; CAKI-1; NCI-H522; U-251; A498; HCT-15; K562; 786-0; NCI-H226; UACC-62; OVCAR-8; OVCAR-3; HCC 2998; SF-539; NCI-H23; OVCAR-5; IGROV-1; SR.
Assay in all cases: growth of human tumour cells (NCI), 48 h

For `CC(C(=O)c1ccc(Cl)cc1)C1OC(=O)C(Cl)=C1Cl` (stereo not drawn), the GI50 was 22.1 µM (inactive) in the test with SNB-75; 24.8 µM (inactive) in the test with MOLT-4; > 10 µM (inactive) in the test on CAKI-1; 18.9 µM (inactive) in the test on NCI-H522; > 100 µM (inactive) with U-251; 41.5 µM (inactive) in the test on A498. Moreover, the GI50 in the test with HCT-15 was 21.5 µM; in the test on K562, 25.2 µM (inactive); with 786-0 it was 21.2 µM (inactive); with NCI-H226, 68.2 µM (inactive); in the test on UACC-62 it was 19.7 µM (inactive); in the test with OVCAR-8, 32.5 µM (inactive). In addition, the GI50 in the test with OVCAR-3 is 28.5 µM (inactive); with HCC 2998, 26.6 µM (inactive); in the test on SF-539, 27.6 µM (inactive); with NCI-H23, 25.2 µM (inactive); in the test on OVCAR-5, > 100 µM (inactive); in the test with IGROV-1, 29.3 µM (inactive).
Turning to `COC(=O)CC(NC(=O)OCc1ccccc1)C(C(=O)OCc1ccccc1)C1(C)OCCO1` (stereo not drawn), the GI50 in the test on SNB-75 was 23.6 µM (inactive); with SR, 19.1 µM (inactive); in the test with MOLT-4, 20.5 µM (inactive); in the test on U-251, 33.1 µM (inactive); in the test on A498 it was 18.2 µM (inactive); in the test on HCT-15, 37.8 µM. In addition, the GI50 in the test on K562 was 43.4 µM (inactive); in the test with 786-0 it was 51.4 µM (inactive); in the test on NCI-H226, 22.5 µM (inactive); with UACC-62, 18.7 µM (inactive); with OVCAR-8, 25.2 µM (inactive); in the test with OVCAR-3 it was 53.8 µM (inactive). Besides, the GI50 with HCC 2998 is 61.9 µM (inactive); with SF-539, 54.6 µM (inactive); in the test on NCI-H23, 26.4 µM (inactive); in the test on IGROV-1, 40 µM (inactive).
Turning to `Cc1no[n+]([O-])c1/C=N/NS(=O)(=O)c1ccccc1`, the GI50 in the test on SR was > 100 µM (inactive); in the test on MOLT-4, > 100 µM (inactive); in the test with CAKI-1, > 100 µM (inactive); with NCI-H522, > 100 µM (inactive); in the test on U-251, > 100 µM (inactive); in the test with A498 it was 75.3 µM (inactive). The GI50 in the test on HCT-15 was more than 100 µM; in the test on K562, > 100 µM (inactive); in the test with 786-0 it was > 100 µM (inactive); in the test on UACC-62 it was > 100 µM (inactive); in the test with OVCAR-8, > 100 µM (inactive); with OVCAR-3, > 100 µM (inactive). The GI50 in the test with HCC 2998, in the test on SF-539, in the test with NCI-H23, with OVCAR-5 and in the test with IGROV-1 was > 100 µM (inactive) in each case.
Consider `C=C1C(=O)[C@@]23CC[C@@H]4[C@@]5(C)CCC[C@@]4(OC5=O)C2(C)CC[C@]1(OC)C3` (stereo partly drawn), for which the GI50 is 1.24 µM (inactive) in the test on SNB-75; 0.23 µM (active) with SR; 0.238 µM (active) in the test on MOLT-4; 1.75 µM (inactive) in the test with CAKI-1; 0.406 µM (active) in the test on NCI-H522; 0.581 µM in the test with HCT-15. In addition, the GI50 in the test with K562 is 0.0993 µM (active); in the test with 786-0, 0.279 µM (active); with UACC-62, 1.35 µM (inactive); with OVCAR-8 it was 0.611 µM (active); in the test on OVCAR-3, 1.01 µM (active); in the test on HCC 2998 it was 0.351 µM (active). Also, the GI50 with SF-539 is 1.57 µM (inactive); in the test on NCI-H23, 1.45 µM (inactive); with OVCAR-5, 2.06 µM (inactive); with IGROV-1 it was 1.97 µM (inactive).
With `CN1c2ccccc2C(=O)NC12CCNCC2`, the GI50 in the test with SNB-75, in the test on SR, in the test on MOLT-4, in the test on U-251, in the test with A498 and in the test with K562 was > 100 µM (inactive) in each case. The GI50 in the test with 786-0, in the test with NCI-H226, with UACC-62, in the test on OVCAR-8, in the test with HCC 2998 and in the test with SF-539 was > 100 µM (inactive) each time. The GI50 in the test with NCI-H23, in the test with OVCAR-5 and with IGROV-1 was > 100 µM (inactive) each time.
On to `Cc1cc(Cl)cc2c1NC(=O)C2(O)CC(=O)c1ccc(Br)cc1` (stereo not drawn), for which the GI50 in the test on SNB-75 is 45.5 µM (inactive); with MOLT-4, 20.5 µM (inactive); in the test with CAKI-1, > 100 µM (inactive); in the test with NCI-H522 it was 45.7 µM (inactive); in the test on U-251, 79.4 µM (inactive); with A498, 37.8 µM (inactive). Moreover, the GI50 is 57 µM in the test with HCT-15; 21.6 µM (inactive) with K562; 38.2 µM (inactive) in the test on 786-0; > 100 µM (inactive) with NCI-H226; 21.6 µM (inactive) in the test with UACC-62; 38.2 µM (inactive) in the test on OVCAR-8. The GI50 in the test on OVCAR-3 is 63 µM (inactive); with HCC 2998, > 100 µM (inactive); with SF-539 it was 48.3 µM (inactive); with NCI-H23 it was 43.4 µM (inactive); in the test with OVCAR-5, > 100 µM (inactive); in the test on IGROV-1, 66.8 µM (inactive).
With `Cc1c(C(=O)CC(=O)C(=O)Nc2ccc(Cl)c(Cl)c2)[n+]([O-])c2ccccc2[n+]1[O-]`, the GI50 in the test on SNB-75 is 18.9 µM (inactive); with MOLT-4 it was 20.8 µM (inactive); in the test with CAKI-1, 51.9 µM (inactive); in the test on NCI-H522 it was 18.9 µM (inactive); with U-251 it was 26.8 µM (inactive); with A498 it was > 100 µM (inactive). Moreover, the GI50 is 20.5 µM with HCT-15; 23.8 µM (inactive) in the test with K562; 25.8 µM (inactive) in the test on 786-0; > 100 µM (inactive) in the test on NCI-H226; 17.3 µM (inactive) in the test with UACC-62; 17.2 µM (inactive) in the test on OVCAR-8. Also, the GI50 in the test with OVCAR-3 was 2.42 µM (inactive); in the test on HCC 2998 it was 33 µM (inactive); in the test with SF-539 it was 26.9 µM (inactive); with NCI-H23 it was 28.6 µM (inactive); in the test on OVCAR-5 it was 36.4 µM (inactive); with IGROV-1, 18.7 µM (inactive).
Take `CCCCCCN(N)C(=O)CC#N`: the GI50 with SNB-75 was > 100 µM (inactive); in the test with MOLT-4 it was 35.5 µM (inactive); in the test with CAKI-1 it was > 100 µM (inactive); in the test with NCI-H522 it was 23.9 µM (inactive); in the test on U-251 it was 74.5 µM (inactive); with A498, > 100 µM (inactive). Moreover, the GI50 was more than 100 µM in the test on HCT-15; 39.6 µM (inactive) in the test on K562; > 100 µM (inactive) in the test with 786-0; > 100 µM (inactive) in the test on NCI-H226; 60.4 µM (inactive) in the test on UACC-62; > 100 µM (inactive) in the test on OVCAR-8. Besides, the GI50 is 79.1 µM (inactive) in the test on OVCAR-3; > 100 µM (inactive) in the test on HCC 2998; > 100 µM (inactive) in the test with SF-539; 65.6 µM (inactive) with NCI-H23; 52.2 µM (inactive) with OVCAR-5; > 100 µM (inactive) in the test with IGROV-1.
Turning to `Cc1c(Cl)c2ccccc2n1S(=O)(=O)c1ccccc1`, the GI50 with SNB-75 is 19.9 µM (inactive); in the test on SR it was 32.1 µM (inactive); in the test on MOLT-4, 37.4 µM (inactive); with CAKI-1, 58.7 µM (inactive); in the test with NCI-H522, 19.6 µM (inactive); in the test on U-251 it was 88.9 µM (inactive). The GI50 in the test with HCT-15 is 37.3 µM; in the test with K562, 38.5 µM (inactive); in the test on 786-0, 59.6 µM (inactive); with NCI-H226, 37 µM (inactive); in the test with UACC-62, 87.3 µM (inactive); in the test on OVCAR-8, 52.6 µM (inactive). The GI50 with OVCAR-3 was 45 µM (inactive); with HCC 2998 it was 33.6 µM (inactive); with SF-539 it was 54.1 µM (inactive); in the test with NCI-H23, 41.1 µM (inactive); in the test on OVCAR-5, 33.5 µM (inactive); with IGROV-1, > 100 µM (inactive).
With `C[N+](C)(C)CC(=O)N/N=C(/Cc1nc2ccc([N+](=O)[O-])cc2nc1O)C(=O)Nc1cc(C(F)(F)F)ccc1Cl`, the GI50 was > 100 µM (inactive) with SR; > 100 µM (inactive) with MOLT-4; > 100 µM (inactive) in the test on CAKI-1; 28.4 µM (inactive) with NCI-H522; > 100 µM (inactive) with A498; > 100 µM (inactive) with K562. Moreover, the GI50 in the test on 786-0 is > 100 µM (inactive); in the test with UACC-62, 94.2 µM (inactive); with OVCAR-8, > 100 µM (inactive); with OVCAR-3, > 100 µM (inactive); with HCC 2998 it was > 100 µM (inactive); with SF-539, > 100 µM (inactive). Moreover, the GI50 in the test on NCI-H23, in the test on OVCAR-5 and with IGROV-1 was > 100 µM (inactive) in each case.
As to `COc1ccccc1/C=C/C(=O)c1sc(-c2cccnc2)nc1C`, the GI50 is 22.8 µM (inactive) in the test on SNB-75; 61.7 µM (inactive) with MOLT-4; > 100 µM (inactive) with CAKI-1; > 100 µM (inactive) in the test on NCI-H522; > 100 µM (inactive) with U-251; > 100 µM (inactive) with A498. Moreover, the GI50 in the test on HCT-15 was more than 100 µM; in the test on K562, > 100 µM (inactive); in the test on 786-0, > 100 µM (inactive); in the test with NCI-H226, > 100 µM (inactive); in the test with UACC-62 it was > 100 µM (inactive); in the test on OVCAR-8, > 100 µM (inactive). Further, the GI50 with OVCAR-3, in the test on HCC 2998, with SF-539, in the test on NCI-H23, in the test on OVCAR-5 and with IGROV-1 was > 100 µM (inactive) each time.
Turning to `CO[C@H](c1ccccc1)[C@H](C)N(C)c1ccc2ccccc2c1C1=NC(C)(C)CO1`, the GI50 was 15.5 µM (inactive) in the test on SNB-75; 13.3 µM (inactive) with SR; 9.02 µM (inactive) in the test with MOLT-4; > 10 µM (inactive) in the test on CAKI-1; 4.21 µM (inactive) in the test with NCI-H522; 16 µM (inactive) with U-251. Moreover, the GI50 in the test with HCT-15 is 14.6 µM; in the test with K562 it was 11.7 µM (inactive); in the test with 786-0, 16.2 µM (inactive); in the test on NCI-H226, 16.2 µM (inactive); in the test on UACC-62, 33.1 µM (inactive); with OVCAR-8, 13.8 µM (inactive). The GI50 is 15.9 µM (inactive) in the test on OVCAR-3, 16.2 µM (inactive) in the test with SF-539, 14.8 µM (inactive) in the test with NCI-H23 and 33.1 µM (inactive) in the test with IGROV-1.
